Test results reported in patent publication US10233209B2, “Inhibitors of the farnesoid x receptor and uses in medicine” (The United States of America, as represented by the …, priority 2013, dated 2019).
“Also recorded” adds a separate entry of the source.

What was measured:
[1] = Gly-MCA in mouse ileum after oral gavage; format: in vivo; settings: oral gavage 0, 1, 5, 50 mg/kg in corn oil
Experimental: Gly-MCA was given to mice via oral gavage at dosages of 0, 1, 5, and 50 mg/kg of Gly-MCA, with the Gly-MCA dosed in corn oil. Gly-MCA was detected using ultra performance liquid chromatography-electrospray ionization-quadrupole time-of-flight mass spectrometry (UPLC-ESI-QTOFMS).

HFD-induced obese mice = experiment: Gly-MCA in C57BL/6N mice made obese by 12 weeks of high-fat diet; format: in vivo, mouse; settings: 5 mg/kg
Description: (§1) High-fat diet (HFD) (60% kcal consisting of fat) was purchased from Bioserv. […] Fxr^fl/fl and Fxr^ΔIE (Kim et al., J. Lipid Res. 48:2664-2672, 2007) mice were backcrossed with C57BL/6N mice for over 10 generations. For the antibiotic (the combination of bacitracin, neomycin, and streptomycin) study, male C57BL/6N mice from 6 weeks of age were fed a high-fat diet (“HFD) and administered 0.1% (w/v) of each compound (the combination of bacitracin, neomycin, and streptomycin) in the drinking water. […] For TβMCA in vivo, male C57BL/6N mice from 6 weeks of age were fed a HFD and treated with the antibiotics (0.1% of each compound of bacitracin, neomycin, and streptomycin combination) for 3 days. Vehicle (saline), TCA (400 mg/kg body weight, dissolved in saline) or a combination of TCA and TβMCA (400 mg/kg body weight of each compound, dissolved in saline) were orally administered to the mice and followed by a second dose 12 h later. The mice were killed 2 h later for tissue collection. For the Gly-MCA study, Gly-MCA was custom synthesized. Bacon-flavored dough pills were produced as described (Walker et al., Toxicol. Appl. Pharmacol. 260:65-69, 2012) for oral administration of Gly-MCA (0.25 mg Gly-MCA/pill, dose of 10 mg/kg). Mice were trained to eat the dough pills prior to the study. For the prevention of obesity, insulin resistance and NAFLD, male wild-type (WT) C57BL/6N mice, 6- to 8-weeks-old, were fed a high-fat diet (Bio-Serv, Frenchtown, N.J.; 60 kcal % fat) from the age of 6 weeks and were orally administered with vehicle (control pills) or Gly-MCA (0.25 mg/pill/day, dose 10 mg/kg). C57BL/6N mice fed a high-fat diet for 12 weeks were administered (0.25 mg Gly-MCA/pill, dose of 5 mg/kg). Leptin-deficient db/db mice, 6- to 8-weeks-old, fed a chow diet, were administered Gly-MCA (0.25 mg/pill/day, 10 mg/kg). Mice were housed individually in their home cages. Cumulative food intake and TEEbal were measured for 1 week in vehicle and Gly-MCA-treated mice from 6 to 7 weeks of HFD. TEEbal was measured as previously described (Ravussin et al., Int. J. Obesity 37:399-403, 2013).

[2] = Gly-MCA incubation with fecal extract (hydrolysis by gut bacteria); format: in vitro ADME, mouse; settings: 50 μM Gly-MCA; 0.1 mg/mL fecal extract; TβMCA positive control
Experimental: Fecal proteins were prepared from the fecal sample (0.5 g) in pH 7.4 PBS (5.0 ml) using sonication. Incubation was carried out in 3 mM sodium acetate buffer, pH 5.2, containing 0.1 mg/ml fecal protein and 50 μM Gly-MCA or T-β-MCA in a final volume of […]. After a 20-min incubation at 37° C., the samples were plunged into dry ice to stop the reaction. 100 of μL methanol was directly added to the […] reaction mixture. After centrifuging at 14,000 g for 20 min, […] of the supernatant was transferred to an autosampler vial subjected to analysis by a UPLC system coupled with a XEVO triple quadrupole tandem mass spectrometer (Waters Corp., Milford, Mass.).
Fecal extracts were prepared as described above. Gly-MCA (50 μM) was incubated with fecal extract (0.1 mg/mL). The negative control was fecal extract alone. The positive control was fecal extract (0.1 mg/mL) and TβMCA acid (50 μM).

[3] = liver toxicity 24 h after Gly-MCA dosing (ALT, AST); format: in vivo, mouse; settings: 1, 5, 50 mg/kg; after 24 h; vs vehicle
Experimental: Mice were dosed with vehicle or Gly-MCA at 1 mg/kg, 5 mg/kg, and 50 mg/kg. After 24 h, […] (ALT) and […] (AST) levels were determined and the results shown in FIG. 37.

[4] = system: HFD-treated C57BL/6N mice; experiment: Gly-MCA in mice fed a high-fat diet (prevention of obesity, insulin resistance, NAFLD); format: in vivo, mouse
Description: as §1
The mucosa of intestine was gently scraped and liver was taken and both were flash frozen in liquid nitrogen and stored at −80° C. until RNA was prepared. RNA was extracted from frozen intestine and liver using TRIzol reagent (Invitrogen, Carlsbad, Calif.). cDNA was synthesized from 1 μg total RNA using Superscript II reverse transcriptase (Invitrogen, Carlsbad, Calif.). qPCR primers were designed with qPrimerDepot. Measured mRNA levels were normalized to those of 18S ribosomal RNA and expressed as fold change relative to those of control group.
Lipidomics analysis: For serum lipidomics analysis 25 μl serum were extracted by 4-fold cold chloroform:methanol (2:1) solution containing 2 μM LPC (17:0), PC (17:0), SM (17:0) and CER (17:0) (Avanti Polar Lipids, Alabaster, Ala.) as internal standards. The samples were vortexed for 30 s and then allowed to stand for 5 min at room temperature. The mixture was centrifuged at 13,000 rpm for 5 min and then the lower organic phase was collected and evaporated at room temperature under vacuum. The residue was dissolved in chloroform:methanol (1:1), followed by diluting with isopropanol:acetonitrile:H2O (2:1:1) containing 2 μM PC (17:0) prior to UPLC-MS analysis. For tissue lipidomics analysis, about 50 mg of accurately weighted tissues were homogenized with 700 μL methanol: H2O (4:3) solution and then extracted using 800 μL chloroform containing 2 μM LPC (17:0), SM (17:0) and CER (17:0) as internal standards. The homogenate was incubated at 37° C. for 20 min followed by centrifuged for 20 min at 13,000 rpm. The lower organic phase was transferred to a new tube and dried under vacuum. The residue was suspended with 100 chloroform:methanol (1:1) solution and then diluted with isopropanol:acetonitrile:H2O (2:1:1) solution containing 2 μM PC (17:0) before injection. […]

db/db mice = experiment: Gly-MCA in leptin receptor-deficient (db/db) mice; format: in vivo, mouse
Description: as §1

SMILES: C[C@H](CCC(=O)NCC(=O)O)[C@H]1CC[C@H]2[C@@H]3[C@@H](O)[C@@H](O)[C@@H]4C[C@H](O)CC[C@]4(C)[C@H]3CC[C@]12C [Gly-MCA, glycine-β-muricholic acid]
- Gly-MCA detected in mouse ileum (stability in intestine) [1]: stable in the intestine
- body weight gain (HFD-induced obese mice; HFD-induced obese mice, from two weeks of treatment): reduced body weight gain
- absolute fat mass (NMR) (HFD-induced obese mice; obese mice, 6 weeks): significantly decreased
- hepatic lipid droplets (liver histology) (HFD-induced obese mice; obese mice, 6 weeks): marked amelioration in hepatic lipid droplets
- liver weights (HFD-induced obese mice; obese mice, 6 weeks): reduced
- stability: hydrolysis to β-MCA on incubation with fecal extract [2]: stable in the intestine
- liver toxicity (serum ALT and AST levels) [3]: do not develop significant liver toxicity; also recorded: did not exhibit significant liver toxicity
- Gly-MCA levels in the feces ([4]; Gly-MCA treatment for 9 weeks): markedly increased
- Gly-MCA levels in the ileum ([4]; Gly-MCA treatment for 9 weeks): markedly increased
- liver weights ([4]; HFD): decreased
- hepatic lipid droplets (liver histology) ([4]; HFD 7 weeks): marked reduction in hepatic lipid droplets
- Shp and Fgf15 mRNAs in the ileum ([4]; HFD 9 weeks): decreased
- expression of Shp mRNA in the liver ([4]; HFD 9 weeks): similar
- intestinal mRNAs of ceramide de novo synthesis-related genes (Sptic3, Cers4, Degs1, Smpd3) ([4]; HFD 9 weeks): significantly lower
- serum ALT levels ([4]; HFD 9 weeks): significantly decreased
- serum AST levels ([4]; HFD 9 weeks): significantly decreased
- serum triglyceride levels ([4]; HFD 9 weeks): remained similar
- body weight gain ([4]; HFD, 10 mg/kg oral, after one week of treatment): reduced body weight gain
- ITT: insulin sensitivity ([4]; HFD, 6 to 7 weeks): significantly increased
- energy expenditure (TEEbal) ([4]; HFD, 6 to 7 weeks): increased the energy expenditure significantly
- food intake ([4]; HFD, 6 to 7 weeks): comparable
- absolute fat mass (NMR) ([4]; HFD, after 7 weeks of treatment): significantly decreased
- hepatic triglyceride contents decreased to ([4]; HFD, relative to vehicle): approximately 51%
- GTT: blood glucose levels after glucose loading ([4]; after 6 weeks of HFD): significantly reduced blood glucose levels
- absolute fat mass (NMR) (db/db mice; 6 weeks): significantly decreased
- hepatic lipid droplets (liver histology) (db/db mice; 6 weeks): significant decrease in hepatic lipid droplets
- liver TG contents (db/db mice; 6 weeks): dramatically improved
- liver weights (db/db mice; 6 weeks): decreased
- serum ALT levels (db/db mice; 6 weeks): significantly decreased
- serum AST levels (db/db mice; 6 weeks): significantly decreased
- serum triglyceride levels (db/db mice; 6 weeks): remained similar
- body weight (db/db mice; Gly-MCA 6 weeks, 10 mg/kg): reduced body weight
